Assay results as given in patent US20100099561A1, “HETEROBICYCLIC ALKYLTHIO-BRIDGED ISOXAZOLINES” (E.I. DU PONT DE NEMOURS AND COMPANY, priority 2008, published 2010).

Columns and labels:
Type in all cases: in vivo
rice (Oryza sativa) = test: Test B flooded paddy test, rice; details: Flood, scale 0 to 100
Method in brief: (§1)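 Compounds were added directly to paddy water over 2-leaf-stage plants in pots flooded 3 cm above soil, water depth maintained. Visual injury scored against controls after 13 to 15 days in greenhouse, 0 (none) to 100 (complete control); dash indicates no result.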

[1] = tested on: barnyardgrass (Echinochloa crus-galli); test: Test A preemergence, barnyardgrass; details: 0 to 100 scale (0 no effect, 100 complete control)
Method in brief: (§2)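 Visual injury scored 0 (no effect) to 100 (complete control) against untreated plants roughly ten days after greenhouse treatment. Postemergence sprays hit one- to two-leaf plants 2–10 cm high; preemergence was a directed spray onto loam–sand soil, both using surfactant-containing solvent formulations.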

[2] = tested on: pigweed (Amaranthus retroflexus); test: Test A preemergence, pigweed; details: 0 to 100 scale (0 no effect, 100 complete control)
Method in brief: as §2

[3] = tested on: wheat (Triticum aestivum); test: Test A preemergence, wheat; details: 0 to 100 scale (0 no effect, 100 complete control)
Method in brief: as §2

[4] = tested on: large crabgrass (Digitaria sanguinalis); test: Test A postemergence, large crabgrass; details: 0 to 100 scale (0 no effect, 100 complete control)
Method in brief: as §2

[5] = tested on: giant foxtail (Setaria faberi); test: Test A preemergence, giant foxtail; details: 0 to 100 scale (0 no effect, 100 complete control)
Method in brief: as §2

[6] = tested on: wheat (Triticum aestivum); test: Test A postemergence, wheat; details: 0 to 100 scale (0 no effect, 100 complete control)
Method in brief: as §2

[7] = tested on: velvetleaf (Abutilon theophrasti); test: Test A postemergence, velvetleaf; details: 0 to 100 scale (0 no effect, 100 complete control)
Method in brief: as §2

[8] = tested on: ducksalad (Heteranthera limosa); test: Test B flooded paddy test, ducksalad; details: Flood, scale 0 to 100
Method in brief: as §1

corn (Zea mays) [9] = test: Test A postemergence, corn; details: 0 to 100 scale (0 no effect, 100 complete control)
Method in brief: as §2

[10] = tested on: velvetleaf (Abutilon theophrasti); test: Test A preemergence, velvetleaf; details: 0 to 100 scale (0 no effect, 100 complete control)
Method in brief: as §2

corn (Zea mays) [11] = test: Test A preemergence, corn; details: 0 to 100 scale (0 no effect, 100 complete control)
Method in brief: as §2

[12] = tested on: giant foxtail (Setaria faberi); test: Test A postemergence, giant foxtail; details: 0 to 100 scale (0 no effect, 100 complete control)
Method in brief: as §2

[13] = tested on: large crabgrass (Digitaria sanguinalis); test: Test A preemergence, large crabgrass; details: 0 to 100 scale (0 no effect, 100 complete control)
Method in brief: as §2

[14] = tested on: barnyardgrass (Echinochloa crus-galli); test: Test B flooded paddy test, barnyardgrass; details: Flood
Method in brief: as §1

[15] = tested on: pigweed (Amaranthus retroflexus); test: Test A postemergence, pigweed; details: 0 to 100 scale (0 no effect, 100 complete control)
Method in brief: as §2

[16] = tested on: morningglory (Ipomoea spp.); test: Test A preemergence, morningglory; details: 0 to 100 scale (0 no effect, 100 complete control)
Method in brief: as §2

[17] = tested on: barnyardgrass (Echinochloa crus-galli); test: Test A postemergence, barnyardgrass; details: 0 to 100 scale (0 no effect, 100 complete control)
Method in brief: as §2

[18] = tested on: umbrella sedge (Cyperus difformis); test: Test B flooded paddy test, umbrella sedge; details: Flood, scale 0 to 100
Method in brief: as §1

[19] = tested on: morningglory (Ipomoea spp.); test: Test A postemergence, morningglory; details: 0 to 100 scale (0 no effect, 100 complete control)
Method in brief: as §2

[20] = 250 g ai/ha, scale 0 to 100 (0 no effect, 100 complete control)

CC1(C)CC([S+]([O-])Cc2c(C(F)(F)C(F)(F)F)nc3n(c2=O)CCCS3)=NO1 (stereo not drawn) [Compound 40]
Plant response rating, Rice (rice (Oryza sativa); 31 g ai/ha): 0
Plant response rating, Rice (rice (Oryza sativa); 62 g ai/ha): 0
Plant response rating, Rice (rice (Oryza sativa); 125 g ai/ha): 0
Plant response rating, Rice (rice (Oryza sativa); 250 g ai/ha): 0
Plant response rating, Barnyardgrass ([1]; 125 g ai/ha): 0
Plant response rating, Barnyardgrass ([1]; 500 g ai/ha): 60
Plant response rating, Pigweed ([2]; 125 g ai/ha): 0
Plant response rating, Pigweed ([2]; 500 g ai/ha): 0
Plant response rating, Wheat ([3]; 125 g ai/ha): 0
Plant response rating, Wheat ([3]; 500 g ai/ha): 0
Plant response rating, Crabgrass, Large ([4]; 125 g ai/ha): 0
Plant response rating, Crabgrass, Large ([4]; 500 g ai/ha): 40
Plant response rating, Foxtail, Giant ([5]; 125 g ai/ha): 0
Plant response rating, Foxtail, Giant ([5]; 500 g ai/ha): 80
Plant response rating, Wheat ([6]; 125 g ai/ha): 0
Plant response rating, Wheat ([6]; 500 g ai/ha): 50
Plant response rating, Velvetleaf ([7]; 125 g ai/ha): 0
Plant response rating, Velvetleaf ([7]; 500 g ai/ha): 0
Plant response rating, Ducksalad ([8]; 31 g ai/ha): 0
Plant response rating, Ducksalad ([8]; 62 g ai/ha): 0
Plant response rating, Ducksalad ([8]; 125 g ai/ha): 0
Plant response rating, Ducksalad ([8]; 250 g ai/ha): 0
Plant response rating, Corn (corn (Zea mays) [9]; 125 g ai/ha): 0
Plant response rating, Corn (corn (Zea mays) [9]; 500 g ai/ha): 20
Plant response rating, Velvetleaf ([10]; 125 g ai/ha): 0
Plant response rating, Velvetleaf ([10]; 500 g ai/ha): 0
Plant response rating, Corn (corn (Zea mays) [11]; 125 g ai/ha): 0
Plant response rating, Corn (corn (Zea mays) [11]; 500 g ai/ha): 0
Plant response rating, Foxtail, Giant ([12]; 125 g ai/ha): 0
Plant response rating, Foxtail, Giant ([12]; 500 g ai/ha): 50
Plant response rating, Crabgrass, Large ([13]; 125 g ai/ha): 0
Plant response rating, Crabgrass, Large ([13]; 500 g ai/ha): 70
Plant response rating, Barnyardgrass ([14]; 31 g ai/ha, scale 0 to 100): 0
Plant response rating, Barnyardgrass ([14]; 62 g ai/ha, scale 0 to 100): 0
Plant response rating, Barnyardgrass ([14]; 125 g ai/ha, scale 0 to 100): 0
Plant response rating, Barnyardgrass [14, 20]: 0
Plant response rating, Pigweed ([15]; 125 g ai/ha): 0
Plant response rating, Pigweed ([15]; 500 g ai/ha): 0
Plant response rating, Morningglory ([16]; 125 g ai/ha): 0
Plant response rating, Morningglory ([16]; 500 g ai/ha): 0
Plant response rating, Barnyardgrass ([17]; 125 g ai/ha): 10
Plant response rating, Barnyardgrass ([17]; 500 g ai/ha): 70
Plant response rating, Sedge, Umbrella ([18]; 31 g ai/ha): 0
Plant response rating, Sedge, Umbrella ([18]; 62 g ai/ha): 0
Plant response rating, Sedge, Umbrella ([18]; 125 g ai/ha): 0
Plant response rating, Sedge, Umbrella ([18]; 250 g ai/ha): 0
Plant response rating, Morningglory ([19]; 125 g ai/ha): 0
Plant response rating, Morningglory ([19]; 500 g ai/ha): 10

Cc1con2c(=O)c(CS(=O)(=O)C3=NOC(C)(C)C3)c(C(F)(F)F)nc12 [Compound 56]
Plant response rating, Rice (rice (Oryza sativa); 31 g ai/ha): 0
Plant response rating, Rice (rice (Oryza sativa); 62 g ai/ha): 0
Plant response rating, Rice (rice (Oryza sativa); 125 g ai/ha): 0
Plant response rating, Rice (rice (Oryza sativa); 250 g ai/ha): 0
Plant response rating, Barnyardgrass ([1]; 125 g ai/ha): 0
Plant response rating, Barnyardgrass ([1]; 500 g ai/ha): 90
Plant response rating, Pigweed ([2]; 125 g ai/ha): 0
Plant response rating, Pigweed ([2]; 500 g ai/ha): 0
Plant response rating, Wheat ([3]; 125 g ai/ha): 0
Plant response rating, Wheat ([3]; 500 g ai/ha): 0
Plant response rating, Crabgrass, Large ([4]; 125 g ai/ha): 60
Plant response rating, Crabgrass, Large ([4]; 500 g ai/ha): 80
Plant response rating, Foxtail, Giant ([5]; 125 g ai/ha): 20
Plant response rating, Foxtail, Giant ([5]; 500 g ai/ha): 90
Plant response rating, Wheat ([6]; 125 g ai/ha): 0
Plant response rating, Wheat ([6]; 500 g ai/ha): 0
Plant response rating, Velvetleaf ([7]; 125 g ai/ha): 0
Plant response rating, Velvetleaf ([7]; 500 g ai/ha): 0
Plant response rating, Ducksalad ([8]; 31 g ai/ha): 0
Plant response rating, Ducksalad ([8]; 62 g ai/ha): 0
Plant response rating, Ducksalad ([8]; 125 g ai/ha): 0
Plant response rating, Ducksalad ([8]; 250 g ai/ha): 0
Plant response rating, Corn (corn (Zea mays) [9]; 125 g ai/ha): 0
Plant response rating, Corn (corn (Zea mays) [9]; 500 g ai/ha): 0
Plant response rating, Velvetleaf ([10]; 125 g ai/ha): 0
Plant response rating, Velvetleaf ([10]; 500 g ai/ha): 0
Plant response rating, Corn (corn (Zea mays) [11]; 125 g ai/ha): 0
Plant response rating, Corn (corn (Zea mays) [11]; 500 g ai/ha): 0
Plant response rating, Foxtail, Giant ([12]; 125 g ai/ha): 40
Plant response rating, Foxtail, Giant ([12]; 500 g ai/ha): 80
Plant response rating, Crabgrass, Large ([13]; 125 g ai/ha): 0
Plant response rating, Crabgrass, Large ([13]; 500 g ai/ha): 90
Plant response rating, Barnyardgrass ([14]; 31 g ai/ha, scale 0 to 100): 0
Plant response rating, Barnyardgrass ([14]; 62 g ai/ha, scale 0 to 100): 0
Plant response rating, Barnyardgrass ([14]; 125 g ai/ha, scale 0 to 100): 0
Plant response rating, Barnyardgrass [14, 20]: 0
Plant response rating, Pigweed ([15]; 125 g ai/ha): 0
Plant response rating, Pigweed ([15]; 500 g ai/ha): 10
Plant response rating, Morningglory ([16]; 125 g ai/ha): 0
Plant response rating, Morningglory ([16]; 500 g ai/ha): 0
Plant response rating, Barnyardgrass ([17]; 125 g ai/ha): 70
Plant response rating, Barnyardgrass ([17]; 500 g ai/ha): 80
Plant response rating, Sedge, Umbrella ([18]; 31 g ai/ha): 0
Plant response rating, Sedge, Umbrella ([18]; 62 g ai/ha): 0
Plant response rating, Sedge, Umbrella ([18]; 125 g ai/ha): 20
Plant response rating, Sedge, Umbrella ([18]; 250 g ai/ha): 30
Plant response rating, Morningglory ([19]; 125 g ai/ha): 10
Plant response rating, Morningglory ([19]; 500 g ai/ha): 30
